Measurements reported in patent publication US9615572B1, “Disinfectant spray comprising copper iodide” (PEN Inc., priority 2014, dated 2017).

Test system: feline calcivirus ATCC VR-782
Settings: 20 mg/L in a water based solution applied to a surface; 10 minutes exposure; non-enveloped virus
Protocol: Copper ions (20 mg/L) in a water based solution were applied to a surface with the non-enveloped feline calcivirus ATCC VR-782. […] In our case we wanted to have an idea about the rate of killing and this is why we limited the test to 10 minutes.

copper iodide was tested, and the “reduction relative to the control” value was 82.22%.
